From patent publication US10538555B2, “Macrocyclic inhibitors of the PD-1/PD-L1 and CD80(B7-1)/PD-L1 protein/protein interactions” (BRISTOL-MYERS SQUIBB COMPANY, priority 2014, dated 2020)
Where a SMILES comes first, the peptide text is derived from it. Bridges are numbered along the chain shown (N, C = ends). [ ]: non-standard residue; d: D form. ξ: configuration not given here. Trp(1-CH2COOH) = N[C@@H](Cc1cn(CC(=O)O)c2ccccc12)C(=O)O; Phe(3,4,5-F3) = N[C@@H](Cc1cc(F)c(F)c(F)c1)C(=O)O; Phe(3,4-F2) = N[C@@H](Cc1ccc(F)c(F)c1)C(=O)O; Trp(2-Me) = Cc1[nH]c2ccccc2c1C[C@H](N)C(=O)O; Trp(1-Me) = Cn1cc(C[C@H](N)C(=O)O)c2ccccc21; Phe(4-F) = N[C@@H](Cc1ccc(F)cc1)C(=O)O; d(cisHyp) = O=C(O)[C@H]1C[C@@H](O)CN1; Hyp = O=C(O)[C@@H]1C[C@@H](O)CN1; NMeF = CN[C@@H](Cc1ccccc1)C(=O)O; dHyp = O=C(O)[C@H]1C[C@H](O)CN1; NMehSer = CN[C@@H](CCO)C(=O)O; NMeNle = CCCC[C@H](NC)C(=O)O; NMeV = CN[C@H](C(=O)O)C(C)C; Pip = O=C(O)[C@@H]1CCCCN1; hSer = N[C@@H](CCO)C(=O)O; NMeA = CN[C@@H](C)C(=O)O; Orn = NCCC[C@H](N)C(=O)O; Dab = NCC[C@H](N)C(=O)O; Dap = NC[C@H](N)C(=O)O; ξC = NC(CS)C(=O)O

These molecules were tested against T1, Human PD-L1/PD-1 (Homo sapiens, UniProt Q9NZQ7) (assay: HTRF Human PD-L1/PD-1 binding assay (PD-1-Ig/PD-L1-His)). Conditions: PD-L1-His 10 nM, PD-1-Ig 20 nM; class symbol; read-out: HTRF Human PD-L1/PD-1 Binding Assay IC50 Range.
T1 construct: TVMV protease cleavage site (C); made in house; host or cells: HEK293T cells
T1 sequence (Q9NZQ7 with tags, fused parts or gaps): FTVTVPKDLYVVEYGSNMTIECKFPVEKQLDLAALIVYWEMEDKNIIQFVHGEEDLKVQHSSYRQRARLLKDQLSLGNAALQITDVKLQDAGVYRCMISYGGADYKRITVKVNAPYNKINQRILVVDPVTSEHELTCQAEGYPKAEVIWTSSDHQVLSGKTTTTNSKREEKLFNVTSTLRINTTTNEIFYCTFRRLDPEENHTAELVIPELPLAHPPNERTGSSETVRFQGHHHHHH
Procedure, shortened: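 Soluble HEK293T-expressed proteins: hPD-L1-His 10 nM, hPD-1-Ig 20 nM final. Cpd + PD-L1 15 min, + PD-1 15 min, + Eu anti-Ig 1 nM/APC anti-His 20 nM 30 min. Buffer dPBS, 0.1% BSA, 0.05% Tween-20. TR-FRET 665/620.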

Row | SMILES | IC50 [nM]
1 | CCCC[C@H]1C(=O)N(C)[C@@H](CCCC)C(=O)N[C@@H](CCN)C(=O)N[C@H](C(=O)NCC(N)=O)CSCC(=O)N[C@@H](Cc2ccc(O)cc2)C(=O)N(C)[C@@H](C)C(=O)N[C@@H](CC(N)=O)C(=O)N2CCC[C@H]2C(=O)N[C@@H](Cc2cnc[nH]2)C(=O)N[C@@H](CCC(N)=O)C(=O)N2C[C@H](O)C[C@H]2C(=O)N[C@@H](Cc2c[nH]c3ccccc23)C(=O)N[C@@H](CCN)C(=O)N[C@@H](Cc2cn(CC(=O)O)c3ccccc23)C(=O)N1C [Example 6293] ({CH2CO}-Y[NMeA]NPHQ[Hyp]W[Dab][Trp(1-CH2COOH)][NMeNle][NMeNle][Dab]CG-NH2; thioether N-14) | 1 to 9.9
2 | CCCC[C@H]1C(=O)N(C)[C@@H](CCCC)C(=O)N[C@@H](C)C(=O)N[C@H](C(=O)NCC(N)=O)CSCC(=O)N[C@@H](Cc2ccc(O)cc2)C(=O)N(C)[C@@H](C)C(=O)N[C@@H](CC(N)=O)C(=O)N2CCC[C@H]2C(=O)N[C@@H](Cc2cnc[nH]2)C(=O)N[C@@H](CCC(N)=O)C(=O)N2C[C@H](O)C[C@H]2C(=O)N[C@@H](Cc2c[nH]c3ccccc23)C(=O)N[C@@H](CO)C(=O)N[C@@H](Cc2c(C)[nH]c3ccccc23)C(=O)N1C [Example 1285] ({CH2CO}-Y[NMeA]NPHQ[Hyp]WS[Trp(2-Me)][NMeNle][NMeNle]ACG-NH2; thioether N-14) | 1 to 9.9
3 | CCCC[C@H]1C(=O)N(C)[C@@H](CCCC)C(=O)N[C@@H](CCC(=O)O)C(=O)N[C@H](C(=O)NCC(N)=O)CSCC(=O)N[C@@H](Cc2ccc(O)cc2)C(=O)N2CCCC[C@H]2C(=O)N[C@@H](CC(=O)O)C(=O)N2CCC[C@H]2C(=O)N[C@@H](Cc2cnc[nH]2)C(=O)N[C@@H](CCC(=O)O)C(=O)N2C[C@H](O)C[C@H]2C(=O)N[C@@H](Cc2c[nH]c3ccccc23)C(=O)N[C@@H](CO)C(=O)N[C@@H](Cc2cn(C)c3ccccc23)C(=O)N1C [Example 1505] ({CH2CO}-Y[Pip]DPHE[Hyp]WS[Trp(1-Me)][NMeNle][NMeNle]ECG-NH2; thioether N-14) | 1 to 9.9
4 | CCCC[C@H]1C(=O)N(C)[C@@H](CCCC)C(=O)N[C@@H](CCC(=O)O)C(=O)N[C@H](C(=O)NCC(N)=O)CSCC(=O)N[C@@H](Cc2ccc(O)cc2)C(=O)N(C)[C@@H](C)C(=O)N[C@@H](CC(N)=O)C(=O)N2CCC[C@H]2C(=O)N[C@@H](CO)C(=O)N[C@@H](CCC(N)=O)C(=O)N2C[C@H](O)C[C@H]2C(=O)N[C@@H](Cc2c[nH]c3ccccc23)C(=O)N[C@@H](CO)C(=O)N[C@@H](Cc2c[nH]c3ccccc23)C(=O)N1C [Example 5204] ({CH2CO}-Y[NMeA]NPSQ[Hyp]WSW[NMeNle][NMeNle]ECG-NH2; thioether N-14) | 1 to 9.9
5 | CCCC[C@H]1C(=O)N(C)[C@@H](CCCC)C(=O)N[C@@H](CCC(=O)O)C(=O)N[C@H](C(=O)NCC(N)=O)CSCC(=O)N[C@@H](Cc2ccc(OC)cc2)C(=O)N(C)[C@@H](C)C(=O)N[C@@H](CC(=O)O)C(=O)N2CCC[C@H]2C(=O)N[C@@H](CN)C(=O)N[C@@H](CCCCN)C(=O)N2C[C@H](O)C[C@H]2C(=O)N[C@@H](Cc2c[nH]c3ccccc23)C(=O)N[C@@H](CC(=O)O)C(=O)N[C@@H](Cc2c[nH]c3ccccc23)C(=O)N1C [Example 7130] ({CH2CO}-Y(Me)[NMeA]DP[Dap]K[Hyp]WDW[NMeNle][NMeNle]ECG-NH2; thioether N-14) | 10 to 99.9
6 | CCCC[C@H]1C(=O)N(C)[C@@H](CCCC)C(=O)N[C@@H](CCCN)C(=O)N[C@H](C(=O)NCC(N)=O)CSCC(=O)N[C@@H](Cc2ccc(OC)cc2)C(=O)N(C)[C@@H](C)C(=O)N[C@@H](CC(N)=O)C(=O)N2CCC[C@H]2C(=O)N[C@@H](CN)C(=O)N[C@@H](CCCCN)C(=O)N2C[C@H](O)C[C@H]2C(=O)N[C@@H](Cc2c[nH]c3ccccc23)C(=O)N[C@@H](CC(=O)O)C(=O)N[C@@H](Cc2c[nH]c3ccccc23)C(=O)N1C [Example 7108] ({CH2CO}-Y(Me)[NMeA]NP[Dap]K[Hyp]WDW[NMeNle][NMeNle][Orn]CG-NH2; thioether N-14) | 1 to 9.9
7 | CCCC[C@H]1C(=O)N(C)[C@@H](CCCC)C(=O)N[C@@H](CN)C(=O)N[C@H](C(=O)NCC(N)=O)CSCC(=O)N[C@@H](Cc2ccc(O)cc2)C(=O)N(C)[C@@H](C)C(=O)N[C@@H](CC(N)=O)C(=O)N2CCC[C@H]2C(=O)N[C@@H](CN)C(=O)N[C@@H](CCC(=O)O)C(=O)N2C[C@H](O)C[C@H]2C(=O)N[C@@H](Cc2c[nH]c3ccccc23)C(=O)N[C@@H](CCN)C(=O)N[C@@H](Cc2cn(CC(=O)O)c3ccccc23)C(=O)N1C [Example 6301] ({CH2CO}-Y[NMeA]NP[Dap]E[Hyp]W[Dab][Trp(1-CH2COOH)][NMeNle][NMeNle][Dap]CG-NH2; thioether N-14) | 1 to 9.9
8 | CCCC[C@H]1C(=O)N(C)[C@@H](CCCC)C(=O)N[C@@H](CC(C)C)C(=O)N[C@H](C(=O)NCC(N)=O)CSCC(=O)N[C@@H](Cc2ccc(O)cc2)C(=O)N(C)[C@@H](C)C(=O)N[C@@H](CC(N)=O)C(=O)N2CCC[C@H]2C(=O)N[C@@H](Cc2c[nH]cn2)C(=O)N[C@@H](CCCCNC(C)=O)C(=O)N2C[C@H](O)C[C@H]2C(=O)N[C@@H](Cc2c[nH]c3ccccc23)C(=O)N[C@@H](CCN)C(=O)N[C@@H](Cc2c[nH]c3ccccc23)C(=O)N1C [Example 5228] ({CH2CO}-Y[NMeA]NPHK(Ac)[Hyp]W[Dab]W[NMeNle][NMeNle]LCG-NH2; thioether N-14) | 1 to 9.9

Further lines, results first:

Row | IC50 [nM] | SMILES
9 | 10 to 99.9 | CCCC[C@H]1C(=O)N2CCC[C@@H]2C(=O)N[C@@H](CC(=O)O)C(=O)N[C@@H](C(C)C)C(=O)N(C)[C@@H](Cc2ccccc2)C(=O)N[C@@H](CC(=O)O)C(=O)N2C[C@H](O)C[C@@H]2C(=O)N[C@@H](Cc2c[nH]c3ccccc23)C(=O)N[C@@H](Cc2ccc(O)cc2)C(=O)N[C@@H](CCO)C(=O)N[C@H](C(=O)NCC(N)=O)CSCC(=O)N[C@@H](Cc2cc(F)c(F)c(F)c2)C(=O)N(C)[C@@H](Cc2ccccc2)C(=O)N1C [Example 10172] ({CH2CO}-[Phe(3,4,5-F3)][NMeF][NMeNle][dP]DV[NMeF]D[d(cisHyp)]WY[hSer]CG-NH2; thioether N-13)
10 | 1000 to 10000 | CCCC[C@H]1C(=O)N[C@@H](CC(N)=O)C(=O)N2CCC[C@H]2C(=O)N[C@@H](CO)C(=O)N[C@@H](CCO)C(=O)N2C[C@H](O)C[C@H]2C(=O)N[C@@H](Cc2c[nH]c3ccccc23)C(=O)N[C@@H](CN)C(=O)N[C@@H](Cc2c[nH]c3ccccc23)C(=O)N(C)[C@@H](C)C(=O)N(C)[C@@H](C)C(=O)N[C@@H](CCCNC(=N)N)C(=O)NC(C(=O)NCC(N)=O)CSCC(=O)N[C@@H](Cc2ccc(O)cc2)C(=O)N1C (stereo partly drawn) [Example 10199] ({CH2CO}-Y[NMeNle]NPS[hSer][Hyp]W[Dap]W[NMeA][NMeA]R[ξC]G-NH2; thioether N-14)
11 | 1000 to 10000 | CCCC[C@H]1C(=O)N2CCC[C@@H]2C(=O)N[C@@H](CC(=O)O)C(=O)N[C@@H](C(C)C)C(=O)N(C)[C@@H](C(C)C)C(=O)N[C@@H](CCC(N)=O)C(=O)N2CCC[C@@H]2C(=O)N[C@@H](Cc2c[nH]c3ccccc23)C(=O)N[C@@H](Cc2ccc(O)cc2)C(=O)N[C@@H](CC(C)C)C(=O)N[C@H](C(=O)NCC(N)=O)CSCC(=O)N[C@@H](Cc2ccc(F)cc2)C(=O)N(C)[C@@H](Cc2ccccc2)C(=O)N1C [Example 9245] ({CH2CO}-[Phe(4-F)][NMeF][NMeNle][dP]DV[NMeV]Q[dP]WYLCG-NH2; thioether N-13)
12 | 1 to 9.9 | CCCC[C@H]1C(=O)N(C)[C@@H](CCCC)C(=O)N[C@@H](CCC(=O)O)C(=O)N[C@H](C(=O)NCC(N)=O)CSCC(=O)N[C@@H](Cc2ccc(OC)cc2)C(=O)N(C)[C@@H](C)C(=O)N[C@@H](CC(=O)O)C(=O)N2CCC[C@H]2C(=O)N[C@@H](CN)C(=O)N[C@@H](CCCCN)C(=O)N2C[C@H](O)C[C@H]2C(=O)N[C@@H](Cc2c[nH]c3ccccc23)C(=O)N[C@@H](CCN)C(=O)N[C@@H](Cc2cn(CC(=O)O)c3ccccc23)C(=O)N1C [Example 7148] ({CH2CO}-Y(Me)[NMeA]DP[Dap]K[Hyp]W[Dab][Trp(1-CH2COOH)][NMeNle][NMeNle]ECG-NH2; thioether N-14)
13 | 10 to 99.9 | CCCC[C@H]1C(=O)N2C[C@H](O)C[C@@H]2C(=O)N[C@@H](CC(=O)O)C(=O)N[C@@H](C(C)C)C(=O)N(C)[C@@H](Cc2ccccc2)C(=O)N[C@@H](CC(N)=O)C(=O)N2C[C@H](O)C[C@@H]2C(=O)N[C@@H](Cc2c[nH]c3ccccc23)C(=O)N[C@@H](Cc2ccc(O)cc2)C(=O)N[C@@H](CN)C(=O)N[C@H](C(=O)NCC(N)=O)CSCC(=O)N[C@@H](Cc2cc(F)c(F)c(F)c2)C(=O)N(C)[C@@H](Cc2ccccc2)C(=O)N1C [Example 9365] ({CH2CO}-[Phe(3,4,5-F3)][NMeF][NMeNle][d(cisHyp)]DV[NMeF]N[d(cisHyp)]WY[Dap]CG-NH2; thioether N-13)
14 | 1 to 9.9 | CCCC[C@H]1C(=O)N(C)[C@@H](CCCC)C(=O)N[C@@H](CO)C(=O)NC(C(=O)NCC(N)=O)CSCC(=O)N[C@@H](Cc2ccc(O)cc2)C(=O)N(C)[C@@H](C)C(=O)N[C@@H](CC(N)=O)C(=O)N2CCC[C@H]2C(=O)N[C@@H](CC(N)=O)C(=O)N[C@@H](CC(C)C)C(=O)N2C[C@H](O)C[C@H]2C(=O)N[C@@H](Cc2c[nH]c3ccccc23)C(=O)N[C@@H](CO)C(=O)N[C@@H](Cc2c[nH]c3ccccc23)C(=O)N1C (stereo partly drawn) [Example 9142] ({CH2CO}-Y[NMeA]NPNL[Hyp]WSW[NMeNle][NMeNle]S[ξC]G-NH2; thioether N-14)

Same assay, conditions: PD-L1-His 10 nM, PD-1-Ig 20 nM; read-out: HTRF Human PD-L1/PD-1 Binding Assay IC50

Row | IC50 [nM] | SMILES
15 | 3.8 | COCC[C@H]1C(=O)N2C[C@@H](O)C[C@@H]2C(=O)N[C@@H](CC(=O)O)C(=O)N[C@@H](C(C)C)C(=O)N(C)[C@@H](Cc2ccccc2)C(=O)N[C@@H](Cc2ccc(OC)cc2)C(=O)N2C[C@@H](O)C[C@@H]2C(=O)N[C@@H](Cc2c[nH]c3ccccc23)C(=O)N[C@@H](Cc2ccc(O)cc2)C(=O)N[C@@H](CCCN)C(=O)N[C@H](C(=O)NCC(N)=O)CSCC(=O)N[C@@H](Cc2ccc(F)c(F)c2)C(=O)N(C)[C@@H](Cc2ccccc2)C(=O)N1C [Example 9239] ({CH2CO}-[Phe(3,4-F2)][NMeF][NMehSer](Me)[dHyp]DV[NMeF]Y(Me)[dHyp]WY[Orn]CG-NH2; thioether N-13)
